Values after ≈ are worked out from the molar mass of the structure shown.
How the values were obtained:
LRRK2 = LRRK2 (Homo sapiens (Human), UniProt Q5S007); test: LRRK2 Kinase Assay; type: biochemical; settings: 10 μM ATP
How it was run: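 Radiometric filter-binding assay: compound pre-incubated ~20 min with kinase and substrate peptide in 20 mM HEPES pH 7.5, 10 mM MgCl2, 1% DMSO, then 10 μM ATP with 33P-ATP added.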

LRRK2 G2019S = LRRK2 G2019S (Homo sapiens (Human), UniProt Q5S007, G2019S); test: LRRK2 G2019S Kinase Assay; type: biochemical; settings: 10 μM ATP
How it was run: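 Radiometric filter-binding assay: enzyme, substrate peptide and compound were mixed on ice, ATP added, then incubated 20 min at 30° C. Reaction was stopped with phosphoric acid and the peptide captured on filters. Incorporated radioactivity was read by scintillation counting; staurosporine served as reference.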

DYRK1A = DYRK1A (Homo sapiens (Human), UniProt Q13627); test: In vitro DYRK1A inhibition assay; type: biochemical
[1] = tested on: 299 protein kinases+17 additional preview kinases; test: Protein Kinase Selectivity Profiler; type: biochemical, human; settings: ABL1 T315I, ALK2, ARK5, Aurora A/B/C, BRAF, C-KIT, CLK1-4, CSF1R, DYRK1A-4, FLT3, GSK3β, JAK1-3, KDR, LCK ... TRKA-C; single dose; 10 μM ATP
Description: In vitro profiling of the 317 member kinase panel was performed at Reaction Biology Corporation using the “HotSpot” assay platform. Briefly, specific kinase/substrate pairs along with required cofactors were prepared in reaction buffer; 20 mM Hepes (pH 7.5), 10 mM MgCl2, 1 mM EGTA, 0.02% Brij35, 0.02 mg/ml BSA, 0.1 mM Na3VO4, 2 mM DTT, 1% DMSO. Compounds were delivered into the reaction, followed ˜20 min later by addition of a mixture of ATP (Sigma) and 33P ATP (PerkinElmer) to a final concentration of 10 μM. Reactions were carried out at 25° C. for 120 min, followed by spotting of the reactions onto P81 ion exchange filter paper (Whatman). Unbound phosphate was removed by extensive washing of filters in 0.75% phosphoric acid. […] IC50 values and curve fits were obtained using Prism (GraphPad Software). Kinome tree representations were prepared using Kinome Mapper (http://www.reactionbiology.com/apps/kinome/mapper/Launch Kinome.htm). Specifically for the LRRK2 enzyme the substrate LRRKtide (gene bank and protein access numbers NP_940980.2 Q5S007) and clone aa 970-2527 expressed in baculovirus in insect cells with N-terminal GST tag was employed in the study protocol. In the case of DYRK1A (SEQ ID NO 16) the substrate casein (gene bank and protein access numbers NP_001387 Q13627) full length clone expressed in insect with n-terminal tag was used.
A control compound was tested in 10-dose IC50 mode with 3-fold serial dilution starting at 20 μM. Reactions were carried out at 10 μM ATP. Data pages include raw data, % Enzyme activity (relative to DMSO controls), and curve fits.

[2] = tested on: MPTP-injected C57 black mice; test: MPTP mouse model of Parkinson's disease, oral pre-treatment; type: in vivo
Rat pharmacokinetics = settings: male, Sprague Dawley
Text: To investigate the pharmacokinetic profiles of test compound following intravenous bolus administration and oral gavage in male Sprague Dawley rats.

[3] = tested on: Rat hepatoma (H4IIE) cell line; test: In vitro toxicology, general cytotoxicity; type: cell-based; settings: rat, 24 h
Description: Cells were seeded into 96-well plates and cultured in medium containing 20% bovine serum. […] General cytotoxicity was evaluated by monitoring membrane integrity (MBR, cell supernatant), cell mass (PI) and mitochondrial function (cellular ATP levels). Rotenone was included as a positive control because it produces measurable effects in all three assays. DMSO at 0.5% in medium was included as a negative control. Three wells per exposure concentration were used in each assay. Results are summarized in Table 8 and are expressed as percent of control, with control values set at 100%. […] Test compounds 13 and 13 HCl were rank-ordered from most to least toxic based on individual membrane integrity and ATP responses as well as resultant TC50 values.
Test compounds 13 and 13 HCl were rank-ordered from highest to lowest probability of producing toxicity based first on membrane toxicity, then on ATP, and finally on cell mass (PI). It is important to note that within a given grouping compounds may be classified as to their primary effect being either cytotoxic, cytostatic, or reducing mitochondrial function. In general, compound responses above 80% of vehicle control are considered to be low-to-no effect, moderates generally rank 80% to 50% of vehicle control, and those compounds that cross the 50% mark are considered to have higher probability of toxicity.

recombinant human MAO-A = recombinant human MAO-A (Homo sapiens (Human), UniProt P21397); test: Inhibition of monoamine oxidase MAO-A; type: biochemical; settings: kynuramine 50 μM, 25 min at 37° C.
Description: (§1) Test compounds (0.01-100 μM) final DMSO concentration 0.1%, were incubated with recombinant human MAO-A (2 μg/mL) or MAO-B (2 μg/mL) in the presence of the probe substrate kynuramine (50 μM) for 25 min at 37° C. […] The reactions were terminated by addition of methanol containing internal standard for analytical quantification. The quenched samples were incubated at 4° C. for 10 min and centrifuged at 4° C. for 10 min. The supernatant was removed and analyzed by LC-MS/MS for the probe metabolite 4-hydroxyquinoline.

recombinant human MAO-B = recombinant human MAO-B (Homo sapiens (Human), UniProt P27338); test: Inhibition of monoamine oxidase MAO-B; type: biochemical; settings: kynuramine 50 μM, 25 min at 37° C.
Description: as §1

[4] = orally administered, pre-treatment

recombinant human MAO-B, sequence (P27338 whole entry): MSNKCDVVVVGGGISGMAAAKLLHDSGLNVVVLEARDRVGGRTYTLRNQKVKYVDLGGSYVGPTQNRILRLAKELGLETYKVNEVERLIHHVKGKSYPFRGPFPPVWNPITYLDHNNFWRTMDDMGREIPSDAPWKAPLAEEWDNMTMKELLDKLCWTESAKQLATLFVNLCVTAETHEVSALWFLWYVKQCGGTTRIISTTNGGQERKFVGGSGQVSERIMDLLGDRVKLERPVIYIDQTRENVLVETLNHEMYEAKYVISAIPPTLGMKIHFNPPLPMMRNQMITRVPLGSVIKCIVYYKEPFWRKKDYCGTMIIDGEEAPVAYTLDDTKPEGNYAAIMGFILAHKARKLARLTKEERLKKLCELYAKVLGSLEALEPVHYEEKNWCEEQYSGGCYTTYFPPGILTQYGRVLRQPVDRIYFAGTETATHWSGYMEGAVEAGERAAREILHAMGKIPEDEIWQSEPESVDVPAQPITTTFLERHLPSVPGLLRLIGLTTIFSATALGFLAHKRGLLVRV
LRRK2 G2019S, sequence (Q5S007 970-2527 G2019S): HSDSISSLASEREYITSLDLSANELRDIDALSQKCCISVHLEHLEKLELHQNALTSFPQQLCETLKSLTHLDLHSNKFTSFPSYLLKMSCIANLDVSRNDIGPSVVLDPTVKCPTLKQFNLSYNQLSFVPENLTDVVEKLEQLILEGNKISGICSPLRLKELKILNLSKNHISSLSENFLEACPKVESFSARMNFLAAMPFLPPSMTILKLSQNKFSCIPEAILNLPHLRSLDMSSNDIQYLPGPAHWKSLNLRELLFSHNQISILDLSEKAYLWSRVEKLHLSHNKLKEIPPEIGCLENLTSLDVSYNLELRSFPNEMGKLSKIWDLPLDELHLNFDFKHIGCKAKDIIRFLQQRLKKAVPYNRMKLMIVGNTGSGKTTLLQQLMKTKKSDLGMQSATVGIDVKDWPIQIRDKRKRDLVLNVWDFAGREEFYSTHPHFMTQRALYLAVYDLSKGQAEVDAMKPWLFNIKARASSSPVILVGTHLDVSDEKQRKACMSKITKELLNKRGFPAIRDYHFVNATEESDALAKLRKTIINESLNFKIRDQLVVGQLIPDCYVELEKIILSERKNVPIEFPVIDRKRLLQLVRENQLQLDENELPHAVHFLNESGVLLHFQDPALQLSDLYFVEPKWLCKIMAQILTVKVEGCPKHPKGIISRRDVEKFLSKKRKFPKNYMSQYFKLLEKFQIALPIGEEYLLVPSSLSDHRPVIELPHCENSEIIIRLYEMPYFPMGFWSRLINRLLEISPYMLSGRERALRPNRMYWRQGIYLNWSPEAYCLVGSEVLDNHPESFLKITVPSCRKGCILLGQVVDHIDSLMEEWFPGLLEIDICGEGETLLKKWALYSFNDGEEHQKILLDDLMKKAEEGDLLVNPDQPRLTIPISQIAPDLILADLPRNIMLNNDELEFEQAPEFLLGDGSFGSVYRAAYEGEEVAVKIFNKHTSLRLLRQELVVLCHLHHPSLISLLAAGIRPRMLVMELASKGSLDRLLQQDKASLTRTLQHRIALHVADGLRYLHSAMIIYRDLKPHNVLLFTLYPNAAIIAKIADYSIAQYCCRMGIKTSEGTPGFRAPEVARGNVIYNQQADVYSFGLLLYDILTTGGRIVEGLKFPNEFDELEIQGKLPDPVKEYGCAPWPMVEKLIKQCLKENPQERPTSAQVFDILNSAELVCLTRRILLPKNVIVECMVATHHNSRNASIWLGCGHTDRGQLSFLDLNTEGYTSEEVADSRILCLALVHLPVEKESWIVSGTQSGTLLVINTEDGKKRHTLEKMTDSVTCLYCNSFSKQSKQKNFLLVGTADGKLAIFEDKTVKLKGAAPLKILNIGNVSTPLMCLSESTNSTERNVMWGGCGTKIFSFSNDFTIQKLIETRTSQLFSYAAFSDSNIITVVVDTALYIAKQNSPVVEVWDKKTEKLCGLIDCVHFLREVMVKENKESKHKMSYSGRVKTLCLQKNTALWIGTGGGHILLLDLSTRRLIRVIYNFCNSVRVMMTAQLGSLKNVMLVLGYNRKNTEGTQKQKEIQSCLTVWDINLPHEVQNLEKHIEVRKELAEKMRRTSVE
recombinant human MAO-A, sequence (P21397 whole entry): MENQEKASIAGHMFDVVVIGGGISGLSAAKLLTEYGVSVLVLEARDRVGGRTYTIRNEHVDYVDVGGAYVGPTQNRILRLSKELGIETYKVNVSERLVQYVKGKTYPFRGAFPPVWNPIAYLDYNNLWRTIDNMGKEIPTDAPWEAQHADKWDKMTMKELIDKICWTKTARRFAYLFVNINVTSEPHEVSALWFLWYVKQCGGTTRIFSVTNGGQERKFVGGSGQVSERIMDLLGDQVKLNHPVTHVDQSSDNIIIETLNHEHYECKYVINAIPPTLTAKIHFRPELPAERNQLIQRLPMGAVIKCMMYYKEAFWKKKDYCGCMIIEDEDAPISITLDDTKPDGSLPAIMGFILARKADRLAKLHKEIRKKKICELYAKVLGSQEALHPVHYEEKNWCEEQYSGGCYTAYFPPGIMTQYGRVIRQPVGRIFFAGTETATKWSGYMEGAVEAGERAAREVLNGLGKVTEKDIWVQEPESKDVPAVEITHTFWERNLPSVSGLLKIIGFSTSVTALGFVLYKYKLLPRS
LRRK2, sequence (Q5S007 970-2527): as the sequence (Q5S007 970-2527 G2019S) above, with S1050G counted along it

Cc1n[nH]c2ncc(-c3cncc(NC4CCN(C)CC4)n3)cc12 [Compound 13, 6-(3methyl-1H-pyrazolo[3,4-b]pyridine-5yl)-N-(1-methylpiperidine-4yl)pyrazin-2-amine]
IC50 (LRRK2): < 0.5 µM
IC50 (LRRK2 G2019S): < 0.5 µM
IC50 (DYRK1A): < 0.5 µM
activity against kinases in broader scope, relative to DMSO control [1]: 5-15%
protection against MPTP-induced TH cell loss and dopaminergic degeneration in substantia nigra and striatum ([2]; 10 mg/kg and 30 mg/kg oral): dose-dependent protection
locomotor activities in MPTP-injected mice [2, 4]: Improve Locomotor Activities
striatal dopamine levels in MPTP treated mice [2, 4]: Restore Striatal Dopamine Levels
AUC(0-t) (Rat pharmacokinetics; in vivo, iv, 5 mg/kg): 1020 ng·h/mL
Vd (Rat pharmacokinetics; in vivo, iv, 5 mg/kg): 15.2 L/kg
clearance (Rat pharmacokinetics; in vivo, iv, 5 mg/kg): 123 mL/min/kg
AUC(0-t) (Rat pharmacokinetics; in vivo, po, 30 mg/kg): 1040 ng·h/mL
Cmax (Rat pharmacokinetics; in vivo, po, 30 mg/kg): 133 ng/mL
half-life (Rat pharmacokinetics; rat, iv, 5 mg/kg): 2.26 h
F (Rat pharmacokinetics; rat, po, 30 mg/kg): 24%
Tmax (Rat pharmacokinetics; rat, po, 30 mg/kg): 6.7 h
ATP TC50 [3]: >50 µM
Cell Mass TC50 [3]: >50 µM
Mem Tox TC50 [3]: >50 µM
ATP % Control ([3]; 5 μM): 99%
Cell Mass % Control ([3]; 5 μM): 93%
Mem Tox % Control ([3]; 5 μM): 100%
ATP % Control ([3]; 10 μM): 99%
Cell Mass % Control ([3]; 10 μM): 88%
Mem Tox % Control ([3]; 10 μM): 96%
ATP % Control ([3]; 50 μM): 74%
Cell Mass % Control ([3]; 50 μM): 71%
Mem Tox % Control ([3]; 50 μM): 94%
IC50 (recombinant human MAO-A): > 100 µM
IC50 (recombinant human MAO-B): > 100 µM
solubility (physchem): 50 µM (≈ 16.2 µg/mL)

Reference: patent US9669028B2, “Substituted 5-(pyrazin-2-yl)-1H-pyrazolo [3, 4-B] pyridine and pyrazolo [3, 4-B] pyridine derivatives as protein kinase inhibitors” (Arrien Pharmaceuticals LLC, priority 2011, dated 2017)
